Reference: patent publication US20110269797A1, “ANLN PROTEIN AS AN ENDOCRINE TREATMENT PREDICTIVE FACTOR” (ATLAS ANTIBODIES AB, priority 2008, published 2011)
“Also recorded” adds a separate entry of the source.

Key:
ERα+/PR− tumors = details: follow-up period of 6 years, Dowsett 2005; cited from earlier work
[1] = tested on: stage II primary breast carcinoma; experiment: Randomized premenopausal tamoxifen trial, Cohort II TMA, Kaplan-Meier survival analysis by ANLN protein level; type: in vivo, human
Text: Median age at diagnosis was 45 (25-57) years. Median follow-up was 13.9 years and less than 2% of the patients had received adjuvant chemotherapy. The study design is described in detail elsewhere (Rydén L et al, Eur J Cancer, 2005, 41(2): 256-64). Ethical permission was obtained from the Local Ethics Committees at Lund and Linkoping Universities.
All cases had been histopathologically re-evaluated on hematoxylin and eosin stained slides. TMA:s were constructed by sampling 2×0.6 mm cores per case from areas representative of invasive cancer, using an automated arraying device (ATA-27, Beecher Inc, Sun Prairie, Wis., USA). The TMA:s were prepared and automated IHC was performed as described in section 3 above, using the ANLN protein antibody prepared as described in section 2 above. IHC staining of ER had been performed previously. In line with current clinical praxis, a cut-off at 10% positive nuclei was used to define hormone receptor positivity.
For statistical analyses, categories were based on nuclear fraction (nf). nf was evaluated as in Examples, section 4, above. As with “the fraction of stained cells” in Examples, Section 3 above, nf was classified as ≦1%, 2-25%, 26-75% or >75%. For this purpose the 2-25% group were split into two groups namely 2-10% and >10-25%. Based on the survival trends for all different strata, dichotomized variables were constructed for further statistical analyses. […] Subsequently, groups denoted “high” or “low” were established based on ANLN protein expression. In a first analysis, the “high” group represented a nuclear fraction (nf) of >1%, and the “low” group a nuclear fraction≦1%. In a second analysis, the “high” group represented a nuclear fraction (nf) of >10%, and the “low” group a nuclear fraction≦10%.
In a third analysis, the “high” group represented a nuclear fraction (nf) of 26%, and the “low” group a nuclear fraction≦25%. This classification of samples was used for OS, RFS and BOSS analysis according to the Kaplan-Meier estimator, and the log-rank test was used to compare survival in different strata. All statistical tests were two-sided, and p-values of <[…] were considered significant. All calculations were made with the statistical package SPSS 16.0 (SPSS Inc. Ill., USA).

primary breast cancer = experiment: Consecutive cohort TMA (Cohort I), survival analysis of tamoxifen-treated ER+ subjects by ANLN protein level; type: in vivo, human; details: ER+ subjects given adjuvant tamoxifen; cut off nf 1%; FIG. 6, p=0.018
Text: Archival formalin-fixed paraffin-embedded tissue from 498 patients diagnosed with primary breast cancer between 1988 and 1992 was collected from the Department of Pathology, Malmo University Hospital, Sweden. The median age of patients was 65 (range 27-96) years and median follow-up time was 128 months (0-207). Information regarding the date of death was obtained from the regional cause-of-death registries for all patients. Ethical permission was obtained from the Local Ethics Committee of Lund University.
All 498 cases of breast cancer were histopathologically reevaluated on slides stained with hematoxylin and eosin. TMA:s were constructed by sampling 2×1.0 mm cores per case from areas representative of invasive cancer, using a manual arraying device (ATA-27, Beecher Inc, Sun Prairie, Wis., USA). The TMA:s were prepared and automated IHC was performed as described in section 3 above, using the ANLN protein antibody prepared as described in section 2 above. IHC staining of ER had been performed previously. […]
For statistical analyses, the nucleic fraction (nf) level was evaluated, in line with what is described in Examples, Section 3 above. The nuclear fraction was subjectively evaluated in accordance to standards used in clinical histo-pathological diagnostics and outcome was classified as ≦1%, 2-25%, 26-75% or >75%. […]

breast cancer = details: cited from earlier work

Row | SMILES | recurrence rate compared to patients treated with tamoxifen (ERα+/PR− tumors) | benefit from tamoxifen treatment (RFS, BCSS, OS) ([1]; ER positive ANLN protein low patients (nf≦10%), TAM vs ctrl, FIGS. 14a, 15a, 16a) | impact of tamoxifen treatment on survival (RFS, BCSS, OS) ([1]; ER positive patients with high ANLN protein level (nf>10%), TAM vs ctrl, FIGS. 14b, 15b, 16b) | RFS of ANLN protein low versus ANLN protein high patients treated with tamoxifen ([1]; adjuvant tamoxifen 2 years, cut off 1% and 10%, FIG. 8) | effect of tamoxifen treatment on RFS ([1]; ductal carcinoma subgroup, ANLN protein low (nf≦10%), TAM vs ctrl, FIG. 20a) | impact of tamoxifen treatment on RFS outcome ([1]; ductal carcinoma subgroup, high ANLN protein level (nf>10%), TAM vs ctrl, FIG. 20b) | impact of tamoxifen treatment on RFS outcome ([1]; subjects with high ANLN protein level (nf>10%), TAM 2 years vs ctrl, FIG. 11) | probability of recurrence free survival, ANLN protein low versus high subjects treated with tamoxifen (primary breast cancer) | ERα positive patients that do not respond to tamoxifen treatment (breast cancer; Riggins 2007, Gruvberger-Saal 2007) | breast cancer mortality (breast cancer; five years adjuvant treatment after primary surgery, ER positive tumors, irrespective of lymph node status, EBCTCG 1998)
1 | CC(C)(C#N)c1cc(Cn2cncn2)cc(C(C)(C)C#N)c1 [anastrozole] | halved | – | – | – | – | – | – | – | – | –
2 | CC/C(=C(\c1ccccc1)c1ccc(OCCN(C)C)cc1)c1ccccc1 [tamoxifen] | – | particularly beneficial; also recorded: at least slightly, benefit | limited or no impact | significantly better | effective | no positive impact on the outcome | no positive impact on the outcome | significantly better | 30-40% | reduces
